The values that follow come from ChEMBL document CHEMBL5325469, “Research progress of STAT3-based dual inhibitors for cancer therapy” (Bioorg Med Chem, 2023).

Each structure is given as a SMILES string. pIC50: −log10 of the molar value. Some results are limits rather than exact numbers.

In test [1] the test system is HCT-116. Briefly: Antiproliferative activity against human HCT-116 cells assessed as inhibition of cell growth. Type of test: functional, cell-based.
The test system of test [2] is A549. The test can be described thus: Antiproliferative activity against human A549 cells assessed as inhibition of cell growth. Type of test: functional, cell-based.
The subject of test [3] is MDA-MB-231. The test can be described thus: Antiproliferative activity against human MDA-MB-231 cells assessed as inhibition of cell growth. Type of test: functional, cell-based.
Test [4] has as its target Tubulin. Briefly: Inhibition of tubulin polymerization (unknown origin). Type of test: protein-complex assay, Homo sapiens.
Test [5] addresses Signal transducer and activator of transcription 3 (Homo sapiens, UniProt P40763). Briefly: Inhibition of STAT3 phosphorylation (unknown origin).
The test system of test [6] is DU-145. The test can be described thus: Cytotoxicity against human DU-145 cells assessed as inhibition of cell growth incubated for 24 hrs by MTT assay. Type of test: functional, cell-based. The settings on record: DU-145, 24 h.
Test [7] addresses Tubulin. The test can be described thus: Inhibition of tubulin polymerization (unknown origin) by fluorescence-based tubulin polymerization assay. Type of test: protein-complex assay, Homo sapiens.
Test [8] deals with CAPAN-1. The test can be described thus: Antiproliferative activity against human CAPAN-1 cells assessed as inhibition of cell growth incubated for 72 hrs by IncuCyte live-cell imaging analysis. Type of test: functional, cell-based. Particulars: CAPAN-1, 72 h.
Test [9] relates to HCT-116. The test can be described thus: Antiproliferative activity against human HCT-116 cells assessed as inhibition of cell growth incubated for 72 hrs by IncuCyte live-cell imaging analysis. The settings on record: HCT-116, 72 h. Type of test: functional, cell-based.
The subject of test [10] is NCI-H460. Briefly: Antiproliferative activity against human NCI-H460 cells assessed as inhibition of cell growth incubated for 72 hrs by IncuCyte live-cell imaging analysis. Type of test: functional, cell-based. Particulars: NCI-H460, 72 h.
Test [11] is described as follows: Antiproliferative activity against human DND41 cells assessed as inhibition of cell growth incubated for 72 hrs by IncuCyte live-cell imaging analysis. Type of test: functional, cell-based. Particulars: DND41, 72 h.
The subject of test [12] is HL-60. The test can be described thus: Antiproliferative activity against human HL-60 cells assessed as inhibition of cell growth incubated for 72 hrs by IncuCyte live-cell imaging analysis. Type of test: functional, cell-based. The settings on record: HL-60, 72 h.
For test [13], the system named is K562. Briefly: Antiproliferative activity against human K562 cells assessed as inhibition of cell growth incubated for 72 hrs by IncuCyte live-cell imaging analysis. Type of test: functional, cell-based. Particulars: K562, 72 h.
Test [14] deals with Z-138. The test can be described thus: Antiproliferative activity against human Z138 cells assessed as inhibition of cell growth incubated for 72 hrs by IncuCyte live-cell imaging analysis. Type of test: functional, cell-based. The settings on record: Z-138, 72 h.

Chain of Signal transducer and activator of transcription 3 (P40763 whole entry): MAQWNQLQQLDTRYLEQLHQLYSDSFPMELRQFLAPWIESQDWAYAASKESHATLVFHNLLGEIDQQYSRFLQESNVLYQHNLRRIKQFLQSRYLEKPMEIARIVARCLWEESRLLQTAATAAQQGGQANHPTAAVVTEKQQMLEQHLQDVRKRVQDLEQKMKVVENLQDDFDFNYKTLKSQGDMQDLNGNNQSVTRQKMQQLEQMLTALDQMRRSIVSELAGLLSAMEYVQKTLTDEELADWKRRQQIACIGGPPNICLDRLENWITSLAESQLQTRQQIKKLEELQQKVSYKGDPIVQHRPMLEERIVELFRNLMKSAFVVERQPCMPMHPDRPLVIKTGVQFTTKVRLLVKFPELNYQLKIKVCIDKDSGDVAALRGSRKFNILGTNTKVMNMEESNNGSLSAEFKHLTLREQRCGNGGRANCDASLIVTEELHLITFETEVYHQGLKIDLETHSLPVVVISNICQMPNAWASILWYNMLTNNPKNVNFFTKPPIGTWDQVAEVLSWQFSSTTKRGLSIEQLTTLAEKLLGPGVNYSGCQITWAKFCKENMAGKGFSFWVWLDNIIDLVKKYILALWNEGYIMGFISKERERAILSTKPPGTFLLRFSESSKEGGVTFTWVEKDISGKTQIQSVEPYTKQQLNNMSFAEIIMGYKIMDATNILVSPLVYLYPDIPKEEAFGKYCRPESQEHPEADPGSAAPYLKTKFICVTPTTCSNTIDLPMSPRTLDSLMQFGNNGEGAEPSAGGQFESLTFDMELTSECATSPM

One may read the pIC50 as −log10 of the IC50, conventionally taken in molar units. For the molecule `C=CN(c1cccc2ccccc12)S(=O)(=O)c1ccc(OC)cc1`, the negative-log IC50 (pIC50) in test [1] was 5.52; in test [2] it was 5.87; in [3], 5.55; in test [4], 6.08; in [5], 5.16.

With `COc1cccc2c1C(=O)c1c(O)c3c(c(O)c1C2=O)C[C@@](O)(C(=O)CO)C[C@@H]3O[C@H]1C[C@H](N)[C@H](O)[C@H](C)O1` [DOXORUBICIN], the negative-log IC50 (pIC50) in [6] was below 4.52.

As to `COC(=O)Nc1ccc(C(=O)Nc2ccccc2OC)c(O)c1`, the pIC50 in test [7] is 5.41; in test [8], 5.89; in test [9], 5.85; in test [10], 5.55; in test [11] it was 5.89; in [12] it was 5.82. Further, the pIC50 in [13] and in test [14] was 5.89 in each case.
